Where no end group is shown, it is not given here.
Experiments:
[1] = system: OVA-specific DO11-10 T cells; assay: In vivo activation of T lymphocytes by cutaneous lipopeptide application on the ear (FACS of draining lymph node); design: species or system BALB/c mice; details: daily 20 μl of 50 μM on the ear, vs olive oil; FIG. 1
Method: Lipopeptide activates T lymphocytes in vivo. BALB/c mice were injected intravenously with 20×10^6 DO11-10 TCR-anti OVA transgenic splenocytes. Mice where then treated during 4 days by applying daily 20 μl of 50 μM OVA323-339-lipopeptide or the vehicle directly on one ear. At day five, mice were sacrificed, the draining lymph node and the contra-lateral node cells were stained with the anti-idiotype KJ1-26 recognizing specifically DO11-10 T lymphocytes, anti-CD4 and anti-CD25 antibody. FACS analysis is shown for lymph node cells gated on CD4^+ T lymphocytes.
To analyze the potential curative effect of Tr1 cells in a different inflammatory model, the inventors set up skin inflammation experiments using the hapten oxazolone in three daily applications (FIG. 1). Because Tr1 cells need to be activated at the site of inflammation, they first tested the ability of cutaneous application of lipo-Ova peptide to stimulate T cells. BALB/c mice were injected with naive OVA-specific DO11-10 T cells and mice were treated during […] by applying daily 20 μl of 50 μM OVA323-339-lipopeptide or olive oil directly on the ear. […] In that model, three days after the induction of ear inflammation with oxazolone, the mice were treated with OVA-specific Th1, Th2 or Tr1 T-cell populations or a Tr1 cell clone (FIG. 2) and the lipo-OVA peptide was applied for 6 days.

[2] = system: CD4+ mediated humoral response; assay: Enhancement of a CD4+ mediated humoral response (serum Ovalbumin-specific IgE); assay type: in vivo, Balb/C mice; details: mice immunised i.p. with 25 μg Ovalbumin in Alumn; 1 mg lipopeptide on skin for 3 days; day 20; FIG. 5
Method: (§1) TRP2180-188 lipopeptide and OVA323-339-lipopeptide were diluted at 10 mg/ml in olive oil. Mice were treated during by applying 1 mg lipopeptide or olive oil directly on shaved abdominal skin.
(§2) Sandwich ELISA was used to measure IFN-γ. In brief, ELISA plates (Polylabo, France) were coated with the appropriate coating mAbs (monoclonal antibodies) in carbonate buffer and incubated at 4° C. overnight. Plates were blocked for 30 mn at room temperature with 150 μl of 20% FCS/PBS to each well. 50 μl supernatants from in vitro stimulated cells were then added to the plates and incubated overnight at 4° C. After a washing step, 50 μl/well of the biotinylated second-step Ab was added. Plates were incubated for 1 h at room temperature and washed. The enzyme conjugate (streptavidin-peroxidase) was then added to each well. Plates were incubated at room temperature for 1 h, washed and 100 μl/well of substrate was added, (1 mg/ml ABTS). Plates were read on an ELISA reader at a wavelength of 405 nm after color development (Labsystems iEMS reader, Helsinki, Finland). […]
The inventors also wanted to know wether a lipopeptide epicutaneous application could enhance an humoral response elicited by CD4^+ T lymphocytes in immunised mice. […] At day 20, mice were sacrificed and the concentration of Ovalbumin-specific IgE immunoglobulin was measured in the serum of mice.

[3] = system: CD8+ mediated T lymphocyte response; assay: Priming of a CD8+ T lymphocyte response by epicutaneous lipopeptide application (IFN-γ by lymph node cells); assay type: in vivo, C57BL/6 mice; details: 1 mg on shaved abdomen once a day during one week, read one week later, vs untreated or vehicle; FIG. 3
Method: as §1
as §2, with “Plates were incubated at room temperature for 1 h, washed and 100 μl/well of substrate was added, (1 mg/ml ABTS).” left out
The inventors first wanted to know whether the epicutaneous application of a MHC class I restricted peptide formulated as a lipopeptide could prime a T CD8^+ lymphocyte mediated immune response in mice. […] One week after the last lipopeptide application, mice were sacrificed and the production of IFN-γ by skin draining lymph nodes cells was measured in vitro upon restimulation with the TRP2180-188 peptide.

[4] = system: CD8+ mediated T lymphocyte response; assay: Enhancement of a CD8+ T lymphocyte response after prior peptide immunisation (IFN-γ by lymph node cells); assay type: in vivo; details: mice previously immunised s.c. with 25 μg TRP2180-188 peptide in CFA; 1 mg lipopeptide on skin for 3 days; day 30; FIG. 4
Method: as §1, §2
The inventors next wanted to evaluate the capacity of the TRP2180-188 lipopeptide treatment to enhance a prior immunisation of mice with the TRP2180-188 peptide. […] At day 30, mice were sacrificed and the production of IFN-γ by skin draining lymph nodes cells was measured in vitro upon restimulation with the TRP2180-188 peptide.

Substance | activated (CD25+) OVA-specific (KJ1-26+) T cells in draining lymph nodes [1] | serum concentration of Ovalbumin-specific IgE [2] | production of IFN-γ by skin draining lymph nodes cells upon restimulation with the TRP2180-188 peptide [3] | production of IFN-γ by skin draining lymph nodes cells upon restimulation with the TRP2180-188 peptide [4]
OVA323-339-lipopeptide (KISQAVHAAHAEINEAG; also: lipid moiety, structure and place not given here; UniProt P01012 323-339, looked up, fragment) [peptide 323-339 from Ovalbumin, MHC Class II I-A^d restricted, formulated as lipopeptide; purchased from Bachem] | accumulation of activated (CD25^+) OVA-specific (KJ1-26^+) only in the ear draining-lymph node treated with the lipopeptide | increase in the serum concentration of Ovalbumin specific IgE | – | –
TRP2180-188 lipopeptide (SVYDFFVWL; also: lipid moiety, structure and place not given here; UniProt P29812 180-188, looked up, fragment) [lipopeptide derived from the tyrosinase related protein-2, restricted to the H2-K^b molecule; purchased from Bachem] | – | – | high amounts of IFN-γ were produced | enhancement of the IFNγ production

— patent publication US20070275005A1, “Use of Lipopeptides for Activating T Lymphocytes Through the Skin” (TX-CELL, priority 2003, published 2007)
